The nature of series [1]: In vitro dissolution test of Drug 2 compositions in PBS pH 6.5 (microcentrifuge method, HPLC). Further details: AUC90: tested at 2000 µg/mL. The series is classed as physicochemical. As for the experimental part:
(§1) For this test, 14.4 mg of the dispersion was added to a microcentrifuge tube for a total Drug 2 concentration of approximately 2000 μg/mL if all of the drug were to dissolve completely. The tube was placed in a 37° C. temperature-controlled chamber, and 1.8 mL PBS as pH 6.5 and 290 mOsm/kg was added. The samples were quickly mixed using a vortex mixer for about 60 seconds. The samples were centrifuged at 13,000 G at 37° C. for 1 minute. The resulting supernatant solution was then sampled and diluted 1:6 (by volume) with methanol and then analyzed by high-performance liquid chromatography (HPLC). The contents of the tubes were mixed on the vortex mixer and allowed to stand undisturbed at 37° C. until the next sample was taken. Samples were collected at 4, 10, 20, 40, 90, and 1200 minutes.
For comparison, a Control C4 consisting of 3.6 mg of crystalline Drug 2 was added to PBS for a total concentration of 2000 μg/mL.
For this test, 14.4 mg of the dispersion was added to a microcentrifuge tube for a total Drug 2 concentration of approximately 2000 μg/mL if all of the drug were to dissolve completely. The dissolution test was performed as described in Example 9. Control C4 (consisting of 3.6 mg of crystalline Drug 2) is shown again for comparison.

Series [2] is described as follows: In vitro dissolution test of Drug 3 compositions in PBS with 0.5 wt % NaTC/POPC. The conditions noted are these: for Drug 3 Concentration: approx. 200 μg/mL if all dissolved. The series is classed as physicochemical. As for the experimental part:
as §1
For these tests, 1.44 mg of each dispersion was added to a microcentrifuge tube containing PBS with 0.5 wt % sodium taurocholic acid and 1-palmitoyl-2-oleyl-sn-glycero-3-phosphocholine (“NaTC/POPC,” with a 4/1 weight ratio), for a total Drug 3 concentration of approximately 200 μg/mL if all of the drug were to dissolve completely. For Controls C5, C6, and C7 (with Drug 3B), 1.57 mg of each dispersion was added to PBS containing 0.5 wt % NaTC/POPC to yield approximately 200 μg/mL of active Drug 3. Control C8 consisted of 0.36 mg of crystalline Drug 3A. The dissolution tests were performed as described in Example 9.

The text below walks through data of patent publication US8147872B2, “Pharmaceutical compositions of drugs and neutralized acidic polymers” (Bend Reseach, Inc., priority 2001, dated 2012).

Each structure is given as a SMILES string.

`O=C(N[C@@H](Cc1ccccc1)[C@@H](O)C(=O)N1C[C@@H](O)[C@@H](O)C1)c1cc2cc(Cl)ccc2[nH]1` [Example C4, 5-chloro-1H-indole-2-carboxylic acid[(1S)-benzyl-3-((3R,4S)-dihydroxypyrrolidin-1-yl)-(2R)-hydroxy-3-oxypropyl]amide]: the AUC90 in series [1] (Drug 2, PBS pH 6.5, 37° C.) is on record as 10,300 min * μg/mL. The compound further returned a Cmax90 in series [1] (Drug 2, PBS pH 6.5, 37° C.) of 131 µg/mL. Further, the AUC (as a rule, the area under the concentration-time curve, a measure of exposure) was 0 µg·h/mL in series [1] (Table 4, time 0 min, PBS pH 6.5, 37° C.); 5 µg·h/mL in series [1] (Table 4, time 4 min, PBS pH 6.5, 37° C.); 16.7 µg·h/mL in series [1] (Table 4, time 10 min, PBS pH 6.5, 37° C.); 36.7 µg·h/mL in series [1] (Table 4, time 20 min, PBS pH 6.5, 37° C.); 75 µg·h/mL in series [1] (Table 4, time 40 min, PBS pH 6.5, 37° C.); 172 µg·h/mL in series [1] (Table 4, time 90 min, PBS pH 6.5, 37° C.). For the same compound, the AUC in series [1] (Table 4, time 1200 min, PBS pH 6.5, 37° C.) was 2000 µg·h/mL; in series [1] (Table 5, AUC90 according to the text, PBS pH 6.5), 172 µg·h/mL; in series [1] (time 0 min, PBS pH 6.5, 37° C.), 0 µg·h/mL; in series [1] (time 4 min, PBS pH 6.5, 37° C.) it was 5 µg·h/mL; in series [1] (time 10 min, PBS pH 6.5, 37° C.), 1,000 min * μg/mL; in series [1] (time 20 min, PBS pH 6.5, 37° C.), 2,200 min * μg/mL. Further, the area under the curve (AUC) in series [1] (time 40 min, PBS pH 6.5, 37° C.) was 4,500 min * μg/mL; in series [1] (time 90 min, PBS pH 6.5, 37° C.) it was 10,300 min * μg/mL; in series [1] (time 1200 min, PBS pH 6.5, 37° C.), 120,200 min * μg/mL. The “Drug 2 Concentration” value in series [1] (Table 5, Cmax90 according to the text, PBS pH 6.5) was 131 µg/mL; in series [1] (time 0 min, PBS pH 6.5, 37° C., approx. 2000 μg/mL if all dissolved), 0 µg/mL; in series [1] (time 4 min, PBS pH 6.5, 37° C., approx. 2000 μg/mL if all dissolved), 131 µg/mL; in series [1] (time 10 min, PBS pH 6.5, 37° C., approx. 2000 μg/mL if all dissolved) it was 114 µg/mL; in series [1] (time 20 min, PBS pH 6.5, 37° C., approx. 2000 μg/mL if all dissolved) it was 124 µg/mL; in series [1] (time 40 min, PBS pH 6.5, 37° C., approx. 2000 μg/mL if all dissolved) it was 107 µg/mL. Also, the “Drug 2 Concentration” value came out at 126 µg/mL in series [1] (time 90 min, PBS pH 6.5, 37° C., approx. 2000 μg/mL if all dissolved) and 72 µg/mL in series [1] (time 1200 min, PBS pH 6.5, 37° C., approx. 2000 μg/mL if all dissolved).
In the case of `O=C1Cc2cc(CCN3CCN(c4nsc5ccccc45)CC3)c(Cl)cc2N1` [Example C8, ziprazidone], in series [2] (Drug 3), the Cmax90 was determined as 2 µg/mL. Also, the AUC in series [2] (Drug 3, time 0 min) worked out at 0 µg·min/mL; in series [2] (Drug 3, time 4 min), 0 µg·min/mL; in series [2] (Drug 3, time 10 min) it was 0 µg·min/mL; in series [2] (Drug 3, time 20 min), 0 µg·min/mL; in series [2] (Drug 3, time 40 min), 0 µg·min/mL; in series [2] (Drug 3, time 90 min), 100 µg·min/mL. Further, the AUC in series [2] (Drug 3, time 1200 min) is 1,800 min * μg/mL; in series [2] (Table 9, AUC90 according to the text, Drug 3), 100 µg·min/mL. Moreover, the “Drug 3 Concentration” value in series [2] (time 0 min) stood at 0 µg/mL; in series [2] (time 4 min), 1 µg/mL; in series [2] (time 10 min) it was 1 µg/mL; in series [2] (time 20 min), 1 µg/mL; in series [2] (time 40 min) it was 2 µg/mL; in series [2] (time 90 min), 1 µg/mL. Besides, the “Drug 3 Concentration” value in series [2] (time 1200 min) amounted to 2 µg/mL.
